What is called IC50 is the concentration that gives 50% inhibition.

14 compounds from patent US12180207B2 (ARRAY BIOPHARMA INC., priority 2018, dated 2024) can be followed below.

In assay [1] the target is FGFR1 (SEQ ID NO: 1, amino acids 458-765) (Homo sapiens (Human), UniProt P11362). Kind of assay: LC/MS FGFR1 kobs assay (covalent protein modification). The assay is classed as binding. The settings on record: 500 nM FGFR1, 3 μM compound. The procedure, abridged:
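Covalent labeling of FGFR1 kinase domain (aa 458-765) tracked over time by intact-protein LC/MS after formic acid quench. kobs derived by fitting DMSO-normalized percent unmodified FGFR1 to an exponential decay model.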

The target of assay [2] is dephosphorylated FGFR1 (SEQ ID NO: 1, amino acids 458 to 765) (Homo sapiens (Human), UniProt P11362). In words: FGFR enzyme binding assay (HTRF tracer displacement), FGFR1. To be noted: 5 nM dephosphorylated FGFR1, average of multiple determinations if made. In a few lines: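 Kinase and tracer were incubated with compound for 60 minutes at 22° C. Tracer displacement was then measured by HTRF, and results were expressed as POC with 1 μM control inhibitor defining full displacement.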
Sequence of dephosphorylated FGFR1 (SEQ ID NO: 1, amino acids 458 to 765) (P11362 458-765): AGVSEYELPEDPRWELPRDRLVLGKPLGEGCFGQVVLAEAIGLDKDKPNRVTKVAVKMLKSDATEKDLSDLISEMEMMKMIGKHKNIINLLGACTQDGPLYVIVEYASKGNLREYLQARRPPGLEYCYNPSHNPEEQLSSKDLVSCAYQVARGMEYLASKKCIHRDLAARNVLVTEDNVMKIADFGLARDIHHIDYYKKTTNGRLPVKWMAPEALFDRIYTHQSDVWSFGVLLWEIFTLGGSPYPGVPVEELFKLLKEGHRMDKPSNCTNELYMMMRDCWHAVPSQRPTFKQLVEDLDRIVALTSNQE
Background: Time-resolved FRET reads energy transfer from a long-lived donor to a nearby acceptor.

Assay [3] has as its target HEK-293 cells transfected with dox-inducible human wild type FGFR1 (Homo sapiens (Human), UniProt P11362). In words: FGFR1 pERK cell assay. The settings on record: HEK-293 dox-inducible FGFR1, 1 hour compound, 100 ng/ml FGF-acidic; maximum concentration 5 μM. Type of assay: cell-based. Here is the method:
(§1) FGFR1 pERK Cell Assay: • HEK-293 cells transfected with doxycycline(dox)-inducible human wild type FGFR1 (SEQ ID NO: 1) were plated in a collagen or poly-D-lysine coated 96 well flat bottom plates at 4×10^5 cells/well in complete Dulbecco's Modified Eagle Medium (DMEM) containing 10% FBS and 1 μg/ml doxycycline and allowed to attach for 24 h at 37° C., 5% CO2. Cells were treated with compound using 1:3 serial dilutions with a maximum final concentration of 5 μM. Compound was incubated on cells for 1 hour at 37° C., 5% CO2. Cells were then stimulated with a final concentration of 100 ng/ml human FGF-acidic (R&D Systems Cat number 232-FA/CF) for 5 minutes at 37° C., 5% CO2. Medium was removed, and cells were lysed with lysis buffer containing phosphatase and protease inhibitors. Phospho ERK1/2 was measured using the Meso Scale Discovery sandwich assay (Meso Scale Discovery cat. no. K151DWD). The assay captures phospho ERK1/2 and detects with a sulfo-tagged total ERK1/2 antibody. The chemiluminescent signal was read on the Sector Imager Plate reader. 100 POC was determined using no test compound and 0 POC was determined using a control compound. The POC values were fit to a 4-parameter logistic curve as a function of the concentration of the compound, and the IC50 value is the point where the curve crosses 50 POC.

Assay [4] deals with HEK-293 cells transfected with dox-inducible human wild type FGFR3 (Homo sapiens (Human), UniProt P22607). Kind of assay: FGFR3 pERK cell assay. Type of assay: cell-based. To be noted: HEK-293 dox-inducible FGFR3, 1 hour compound, 100 ng/ml FGF-acidic; maximum concentration 5 μM. As to the method:
as §1, with “FGFR3 pERK” for “FGFR1 pERK”, “with dox-inducible” for “with doxycycline(dox)-inducible”, “type FGFR3” for “type FGFR1”, “NO: 5)” for “NO: 1)”, “complete DMEM medium” for “complete Dulbecco's Modified Eagle Medium (DMEM)”, “test compounds” for “test compound”

The target of assay [5] is recombinant human FGFR2 cytoplasmic domain (amino acids 403-822) (Homo sapiens (Human), UniProt P21802). Kind of assay: FGFR2 enzyme activity assay (LanthaScreen TR-FRET). The settings on record: 15 μM ATP, 20 min incubation at 22° C., average of multiple determinations if made, read-out: FGFR2 Enz FRET IC50. Type of assay: biochemical. In a few lines: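 Substrate phosphorylation was read by TR-FRET using Eu-PY20 antibody (60 min, 22 °C) after a 20 min, 22 °C reaction. The reaction used 15 μM ATP, 100 nM fluorescent poly-GT peptide and His-tagged FGFR2 403-822 ([…]) at pH 7.5 with 2% DMSO.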
Sequence of recombinant human FGFR2 cytoplasmic domain (amino acids 403-822) (P21802 402-821): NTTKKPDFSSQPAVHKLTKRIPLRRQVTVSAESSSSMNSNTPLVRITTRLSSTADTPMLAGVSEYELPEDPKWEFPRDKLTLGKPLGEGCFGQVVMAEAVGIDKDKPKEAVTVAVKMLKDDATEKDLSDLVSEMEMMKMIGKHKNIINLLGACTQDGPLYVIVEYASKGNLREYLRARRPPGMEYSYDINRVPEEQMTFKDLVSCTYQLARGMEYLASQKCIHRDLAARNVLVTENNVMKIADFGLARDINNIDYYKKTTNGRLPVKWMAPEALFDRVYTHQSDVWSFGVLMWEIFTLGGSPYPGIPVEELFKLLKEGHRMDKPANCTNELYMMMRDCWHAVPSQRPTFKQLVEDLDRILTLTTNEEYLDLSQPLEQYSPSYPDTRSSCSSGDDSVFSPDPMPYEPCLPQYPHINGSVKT

Sequence of FGFR1 (SEQ ID NO: 1, amino acids 458-765) (P11362 458-765): as the sequence (P11362 458-765) above
Sequence of HEK-293 cells transfected with dox-inducible human wild type FGFR1 (P11362 22-822): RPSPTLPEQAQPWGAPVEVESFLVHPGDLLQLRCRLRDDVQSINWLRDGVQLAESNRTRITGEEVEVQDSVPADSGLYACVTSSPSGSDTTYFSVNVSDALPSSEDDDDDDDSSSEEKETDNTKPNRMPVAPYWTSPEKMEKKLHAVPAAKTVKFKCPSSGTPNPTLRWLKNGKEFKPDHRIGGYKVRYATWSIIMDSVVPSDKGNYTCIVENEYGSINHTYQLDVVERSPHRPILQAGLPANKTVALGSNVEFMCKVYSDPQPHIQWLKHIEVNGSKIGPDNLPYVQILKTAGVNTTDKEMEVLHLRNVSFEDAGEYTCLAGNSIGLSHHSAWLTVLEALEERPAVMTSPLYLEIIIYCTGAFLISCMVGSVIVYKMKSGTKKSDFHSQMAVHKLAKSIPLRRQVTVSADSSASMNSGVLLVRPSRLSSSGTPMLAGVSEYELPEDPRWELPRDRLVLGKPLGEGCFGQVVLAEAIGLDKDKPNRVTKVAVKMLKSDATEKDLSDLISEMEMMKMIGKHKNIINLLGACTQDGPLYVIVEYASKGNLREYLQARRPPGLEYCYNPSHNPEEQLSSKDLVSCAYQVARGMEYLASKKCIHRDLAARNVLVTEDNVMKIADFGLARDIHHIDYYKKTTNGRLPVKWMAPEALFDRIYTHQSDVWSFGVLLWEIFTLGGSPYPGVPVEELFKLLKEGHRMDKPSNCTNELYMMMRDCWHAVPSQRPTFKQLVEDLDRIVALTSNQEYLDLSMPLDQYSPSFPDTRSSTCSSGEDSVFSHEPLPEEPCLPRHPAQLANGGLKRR
Sequence of HEK-293 cells transfected with dox-inducible human wild type FGFR3 (P22607 23-806): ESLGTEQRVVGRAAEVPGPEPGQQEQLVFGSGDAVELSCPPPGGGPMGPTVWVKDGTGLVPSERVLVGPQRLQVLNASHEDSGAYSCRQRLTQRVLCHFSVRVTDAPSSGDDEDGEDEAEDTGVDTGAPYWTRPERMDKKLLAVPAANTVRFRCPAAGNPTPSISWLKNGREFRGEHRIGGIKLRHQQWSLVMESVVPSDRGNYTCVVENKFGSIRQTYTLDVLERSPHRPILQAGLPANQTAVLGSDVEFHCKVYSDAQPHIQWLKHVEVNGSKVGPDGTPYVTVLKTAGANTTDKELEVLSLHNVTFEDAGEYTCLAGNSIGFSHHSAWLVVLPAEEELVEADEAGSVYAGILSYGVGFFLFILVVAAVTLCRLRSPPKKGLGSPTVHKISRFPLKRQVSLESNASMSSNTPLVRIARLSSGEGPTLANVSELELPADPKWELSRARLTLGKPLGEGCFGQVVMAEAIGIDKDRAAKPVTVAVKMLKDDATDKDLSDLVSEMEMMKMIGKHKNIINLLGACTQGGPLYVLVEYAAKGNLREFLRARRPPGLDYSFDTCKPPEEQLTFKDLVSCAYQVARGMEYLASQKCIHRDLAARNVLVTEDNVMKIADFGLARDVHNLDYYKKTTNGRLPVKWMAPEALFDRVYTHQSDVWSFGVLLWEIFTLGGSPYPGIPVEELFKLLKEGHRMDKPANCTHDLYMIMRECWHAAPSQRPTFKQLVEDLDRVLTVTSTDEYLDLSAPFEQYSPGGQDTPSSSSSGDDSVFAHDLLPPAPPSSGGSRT

For the compound `C=CC(=O)N1CC(C(=O)N2C[C@H]3C[C@@H]2CN3c2ccc(-c3cc(OC)c4c(C#N)cnn4c3)cn2)C1` [Example 107, 6-(6-((1R,4R)-5-(1-acryloylazetidine-3-carbonyl)-2,5-diazabicyclo[2.2.1]heptan-2-yl)pyridin-3-yl)-4-methoxypyrazolo[1,5-a]pyridine-3-carbonitrile], the “FGFR1 Enz kobs” value in assay [1] was 0.00291 min⁻¹. The IC50 stood at 108 nM in assay [2], 1350 nM in assay [3], 355 nM in assay [4] and 9 nM in assay [5].
On the same counts, the results for `COc1cc(-c2cnn(C3CCN(C(=O)C4(OC)CN(C(=O)/C=C/CN(C)C)C4)CC3)c2C)cn2ncc(C#N)c12` [Example 158, (E)-6-(1-(1-(1-(4-(dimethylamino)but-2-enoyl)-3-methoxyazetidine-3-carbonyl)piperidin-4-yl)-5-methyl-1H-pyrazol-4-yl)-4-methoxypyrazolo [1,5-a]pyridine-3-carbonitrile] are 0.00588 min⁻¹, 168 nM, 1830 nM, 108 nM and 30 nM.
Take `C=CC(=O)N1CC(F)(C(=O)N2CCN(c3ccc(-c4cc(OC)c5c(C#N)cnn5c4)cn3)CC2)C1` [Example 112, 6-(6-(4-(1-acryloyl-3-fluoroazetidine-3-carbonyl)piperazin-1-yl)pyridin-3-yl)-4-methoxypyrazolo[1,5-a]pyridine-3-carbonitrile]: in assay [1], the “FGFR1 Enz kobs” value was found to be 0.00852 min⁻¹. Also, the IC50 in assay [2] came to 82 nM; in assay [3], 122 nM; in assay [4], 21 nM; in assay [5], 9 nM.
On the same counts, the results for `C=CC(=O)N1CC(O)(C(=O)N2CCC(n3ncc(-c4cc(OC)c5c(Cl)cnn5c4)c3C)CC2)C1` [Example 172, 1-(3-(4-(4-(3-chloro-4-methoxypyrazolo [1,5-a]pyridin-6-yl)-5-methyl-1H-pyrazol-1-yl)piperidine-1-carbonyl)-3-hydroxyazetidin-1-yl)prop-2-en-1-one] are 0.00191 min⁻¹, 922 nM, 3290 nM, 171 nM and 454 nM.
With `C=CC(=O)N1CC(C(=O)N2CCC(n3cc(-c4cc(OC)c5c(C#N)cnn5c4)c(CC)n3)CC2)C1` [Example 97, 6-(1-(1-(1-acryloylazetidine-3-carbonyl)piperidin-4-yl)-3-ethyl-1H-pyrazol-4-yl)-4-methoxypyrazolo[1,5-a]pyridine-3-carbonitrile], the “FGFR1 Enz kobs” value in assay [1] was determined as 0.00276 min⁻¹. Besides, the IC50 in assay [2] was 572 nM; in assay [4], 384 nM; in assay [5], 38 nM.
`COc1cc(-c2cnn(C3CCN(C(=O)C4CN(C(=O)C5=CCC5)C4)CC3)c2)cn2ncc(C#N)c12` [Example 137, 6-(1-(1-(1-(cyclobut-1-ene-1-carbonyl)azetidine-3-carbonyl)piperidin-4-yl)-1H-pyrazol-4-yl)-4-methoxypyrazolo[1,5-a]pyridine-3-carbonitrile]: the IC50 in assay [2] came out at 49 nM; in assay [3], 989 nM; in assay [4], 318 nM; in assay [5], 4 nM.
Consider `COc1cc(-c2cnn(C3CCN(C(=O)C4CN(C(=O)/C=C/CBr)C4)CC3)c2)cn2ncc(C#N)c12` [Example 180, (E)-6-(1-(1-(1-(4-bromobut-2-enoyl)azetidine-3-carbonyl)piperidin-4-yl)-1H-pyrazol-4-yl)-4-methoxypyrazolo[1,5-a]pyridine-3-carbonitrile], for which the “FGFR1 Enz kobs” value in assay [1] amounted to 0.04552 min⁻¹. For the same compound, the results for the IC50 in assay [2], in assay [3] and in assay [4] were 14 nM, 130 nM and 45 nM, respectively.
For the compound `COc1cc(-c2cnn(C3CCN(CC4CN(C(=O)/C=C/CN5CCCCC5)C4)CC3)c2)cn2ncc(C#N)c12` [Example 175, (E)-4-methoxy-6-(1-(1-((1-(4-(piperidin-1-yl)but-2-enoyl)azetidin-3-yl)methyl)piperidin-4-yl)-1H-pyrazol-4-yl)pyrazolo[1,5-a]pyridine-3-carbonitrile], the “FGFR1 Enz kobs” value in assay [1] came out at 0.00204 min⁻¹. Further, the IC50 in assay [2] came to 90 nM; in assay [5], 10 nM.
With `C=CC(=O)N1C[C@H]2CN(C(=O)N3CCC(n4cc(-c5cc(OC)c6c(C#N)cnn6c5)cn4)CC3)C[C@H]21` [Example 7, 6-(1-(1-((1S,5S)-6-acryloyl-3,6-diazabicyclo[3.2.0]heptane-3-carbonyl)piperidin-4-yl)-1H-pyrazol-4-yl)-4-methoxypyrazolo[1,5-a]pyridine-3-carbonitrile], in assay [1], the “FGFR1 Enz kobs” value is 0.00042 min⁻¹. For the same compound, the IC50 was 52 nM in assay [2] and 6 nM in assay [5].
For `C=CC(=O)N1CC(C(=O)N2CCC(n3cc(-c4cc(OC(C)C)c5c(C#N)cnn5c4)cn3)CC2)C1` [Example 127, 6-(1-(1-(1-acryloylazetidine-3-carbonyl)piperidin-4-yl)-1H-pyrazol-4-yl)-4-isopropoxypyrazolo[1,5-a]pyridine-3-carbonitrile], the “FGFR1 Enz kobs” value in assay [1] was 0.00133 min⁻¹. The IC50 in assay [2] is 59 nM; in assay [5], 5 nM.
`C=CC(=O)N1CC(C(=O)N2CCC(n3cnc(-c4cc(OC)c5c(C#N)cnn5c4)c3)CC2)C1` [Example 98, 6-(1-(1-(1-acryloylazetidine-3-carbonyl)piperidin-4-yl)-1H-imidazol-4-yl)-4-methoxypyrazolo[1,5-a]pyridine-3-carbonitrile]: the “FGFR1 Enz kobs” value in assay [1] came out at 0.00167 min⁻¹. For the same compound, the IC50 in assay [2] came out at 218 nM; in assay [5] it was 6 nM.
On the same counts, the results for `C=CC(=O)Nc1ccc(CN2CCC(n3cc(-c4cc(OC)c5c(C#N)cnn5c4)cn3)CC2)cc1` [Example 9, N-(4-((4-(4-(3-cyano-4-methoxypyrazolo[1,5-a]pyridin-6-yl)-1H-pyrazol-1-yl)piperidin-1-yl)methyl)phenyl)acrylamide] are 0.0059 min⁻¹, 56 nM and 5 nM.
On the same counts, the results for `C=CC(=O)N1CC(C(=O)N2CCC(n3cc(-c4cc(C(C)C)c5c(C#N)cnn5c4)cn3)CC2)C1` [Example 129, 6-(1-(1-(1-acryloylazetidine-3-carbonyl)piperidin-4-yl)-1H-pyrazol-4-yl)-4-isopropylpyrazolo[1,5-a]pyridine-3-carbonitrile] are 0.00148 min⁻¹, 271 nM and 9 nM.
On the same counts, the results for `C=CC(=O)N1CCC(F)(C(=O)N2CCC(n3cc(-c4cc(OC)c5c(C#N)cnn5c4)cn3)CC2)CC1` [Example 13, 6-(1-(1-(1-acryloyl-4-fluoropiperidine-4-carbonyl)piperidin-4-yl)-1H-pyrazol-4-yl)-4-methoxypyrazolo[1,5-a]pyridine-3-carbonitrile] are 0.00056 min⁻¹, 245 nM and 2 nM.
